Test results as given in US10920190B2, “Folding biological tissue via programmed cellular contractility” (The Regents of the University of California, priority 2016, dated 2021).

How the values were obtained:
[1] = system: mesenchymal-like carcinoma cells; experiment: Unfolding of pre-folded isotropic reconstituted tissues after ablating actuator cells; assay type: cell-based
Experimental: (§1) Blebbistatin (Abcam ab120491) and staurosporine (Sigma-Aldrich S5921) were added to cell media at the indicated concentrations by serial dilution from 10 mM DMSO stocks.
Curvatures reported for cap reconstituted tissues were generated by radially reslicing and thresholding in ImageJ after manually picking the center of reconstituted tissues to serve as origin points. Radial slices were read into MATLAB and least-squares fitted to circles. Anisotropic curvatures were similarly generated for the indicated cutting planes and folds.

[2] = system: mesenchymal-like carcinoma cells; experiment: Efficacy of staurosporine on cells cultured on standard tissue culture plastic (cell viability); assay type: cell-based; conditions: 20 μM, n=6
Experimental: as §1

explanted guts = experiment: Cell clustering and collagen 1 remodeling in explanted embryonic guts; conditions: explanted guts of embryonic mice treated with inhibitor; results not shown
Experimental: as §1
(§2) FIG. 21. (A). Gut villi in embryonic mice form in concert with condensation of PDGFR-positive mesenchymal fibroblasts at sites of villus curvature. These clusters are associated with local alignment and compaction of collagen 1 fibrils against the E-cadherin-positive epithelium. […] B) Feather buds in embryonic chickens form from a flat epithelium, and can be visualized with non-specific ethidium bromide staining Chick skin explants at Hamburger-Hamilton (HH) stage 32 form feather buds in culture, but feather bud spacing and height are disrupted in the presence of blebbistatin.

Chick skin explants = experiment: Feather bud formation in chick skin explants in culture; set-up: species or system chickens; conditions: chick skin explants at Hamburger-Hamilton (HH) stage 32 in culture
Experimental: as §1, §2

Row | SMILES | pre-folded isotropic tissue curvatures (maximum curvature relative to average maximum curvature prior to addition) ([1]; 20 μM, n=4 reconstituted tissues per condition) | unfolding of pre-folded tissues ([1]; upon inducing apoptosis of condensing cells using staurosporine (FIG. 13)) | cell death (cell viability) [2] | cell clustering and collagen 1 remodeling (explanted guts) | feather bud spacing and height (Chick skin explants)
1 | CN[C@@H]1C[C@H]2O[C@@](C)([C@@H]1OC)n1c3ccccc3c3c4c(c5c6ccccc6n2c5c31)C(=O)NC4 [staurosporine] | modest reductions | less than 40% | nearly complete cell death |  | 
2 | Cc1ccc2c(c1)C(=O)C1(O)CCN(c3ccccc3)C1=N2 (centres unmarked) [blebbistatin] |  |  |  | does not occur | disrupted
